Assay results published in paper PMC11350587, “Screening Privileged Alkyl Guanidinium Motifs under Host-Mimicking Conditions Reveals a Novel Antibiotic with an Unconventional Mode of Action” (JACS Au, 2024).

Assays:
Format in all cases: cell-based
[1] = target: T1, signal peptidase IB (SpsB) (Staphylococcus aureus, UniProt P0A070); assay: FRET substrate cleavage assay with SpsB (activation)
T1 sequence (P0A070 1-191): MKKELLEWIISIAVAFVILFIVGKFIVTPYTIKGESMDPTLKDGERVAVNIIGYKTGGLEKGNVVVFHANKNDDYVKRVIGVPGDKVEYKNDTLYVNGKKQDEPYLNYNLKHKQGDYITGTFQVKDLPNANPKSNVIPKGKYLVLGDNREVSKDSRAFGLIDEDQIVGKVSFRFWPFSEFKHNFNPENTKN

[2] = target: signal peptidase IB (SpsB) (Staphylococcus aureus, UniProt P0A070); assay: FRET substrate cleavage assay with membrane-bound SpsB (activation); supported by competition of photoprobe labelling in cells and loss of activation in pocket mutants
[3] = target: signal peptidase IB (SpsB) (Staphylococcus aureus, UniProt P0A070, Q165A); assay: enzyme turnover assay with SpsB mutant (activation retained)

Compound	FRET substrate cleavage assay with SpsB (activation) [1]	% [2]	enzyme turnover assay with SpsB mutant (activation retained) [3]
Nc1nccn1Cc1ccc(-c2ccc(Br)cc2)o1 [D16]	Further structural derivatives (D10, D14, and D16) also showed SpsB activation in the FRET assay		
N=C(N)NCc1ccc(-c2ccc(Br)cc2)o1 [L15]		~ 150%	while Q165A, a control mutation that does not affect binding, still showed activation
N=C(N)NCc1ccc(-c2ccc(Br)cc2)s1 [D10]	Further structural derivatives (D10, D14, and D16) also showed SpsB activation in the FRET assay		
NCc1ccc(-c2ccc(Br)cc2)o1 [D14]	Further structural derivatives (D10, D14, and D16) also showed SpsB activation in the FRET assay		
